Laboratory results as given in US8742110B2, “Spiroxazolidinone compounds” (Merck Sharp & Dohme Corp., priority 2010, dated 2014).
Structures can show the parent of a compound that is named as a salt.

Molecular target: SSTR5 (Homo sapiens (Human), UniProt P35346)
Assay: SSTR5 binding assay
Settings: CHO-K1 membranes expressing cloned human SSTR5
Procedure, shortened: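 Competition binding on membranes from CHO-K1 cells stably expressing cloned human receptor, using radiolabeled somatostatin in 50 mM Tris-HCl pH 7.8 with EGTA, MgCl2 and protease inhibitors. Unlabeled compounds tested from 0.01 nM to 10,000 nM.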

SSTR5, sequence (P35346 whole entry): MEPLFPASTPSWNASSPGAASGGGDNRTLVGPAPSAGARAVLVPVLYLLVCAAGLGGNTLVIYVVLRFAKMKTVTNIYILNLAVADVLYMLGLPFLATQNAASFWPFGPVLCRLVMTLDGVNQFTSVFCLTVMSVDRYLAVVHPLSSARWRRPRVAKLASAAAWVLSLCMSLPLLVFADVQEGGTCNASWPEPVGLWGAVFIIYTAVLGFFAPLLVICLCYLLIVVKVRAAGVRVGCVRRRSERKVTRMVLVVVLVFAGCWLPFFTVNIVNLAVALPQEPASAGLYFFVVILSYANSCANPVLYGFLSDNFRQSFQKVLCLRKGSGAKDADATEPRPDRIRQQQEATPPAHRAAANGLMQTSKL

| SMILES | IC50 [pM] |
| --- | --- |
| CCOc1cc(CN2CCC3(CC2)CN(c2ccc(C(=O)O)cc2C)C(=O)O3)cc(OCC)c1-c1ccc(F)cc1 [Example 3-16, 4-{8-[(2,6-Diethoxy-4′-fluorobiphenyl-4-yl)methyl]-2-oxo-1-oxa-3,8-diazaspiro[4.5]dec-3-yl}-3-methylbenzoic acid, TFA salt] | 1180 |
| CCOc1cc(CN2CCC3(CC2)CN(c2cc(C(=O)O)ccn2)C(=O)O3)cc(OCC)c1-c1ccc(F)cc1 [Example 3-17, 2-{8-[(2,6-Diethoxy-4′-fluorobiphenyl-4-yl)methyl]-2-oxo-1-oxa-3,8-diazaspiro[4.5]dec-3-yl}pyridine-4-carboxylic acid, TFA salt] | 2220 |
| CCOc1cc(CN2CCC3(CC2)CN(c2ccc(C(=O)O)c(F)c2)C(=O)O3)cc(OCC)c1-c1ccc(F)cc1 [Example 3-18, 4-{8-[(2,6-Diethoxy-4′-fluorobiphenyl-4-yl)methyl]-2-oxo-1-oxa-3,8-diazaspiro[4.5]dec-3-yl}-2-fluorobenzoic acid, TFA salt] | 1150 |
| CCOc1cc(CN2CCC3(CC2)CN(c2ccc(C(=O)O)cc2Cl)C(=O)O3)cc(OCC)c1-c1ccc(F)cc1 [Example 3-19, 3-Chloro-4-{8-[(2,6-diethoxy-4′-fluorobiphenyl-4-yl)methyl]-2-oxo-1-oxa-3,8-diazaspiro[4.5]dec-3-yl}benzoic acid, TFA salt] | 359 |
| CCOc1ccc(-c2cc(F)c(F)cc2F)c(CN2CCC3(CC2)CN(c2ccc(C(=O)O)cc2)C(=O)O3)c1 [Example 4-1, 4-{8-[(4-Ethoxy-2′,4′,5′-trifluorobiphenyl-2-yl)methyl]-2-oxo-1-oxa-3,8-diazaspiro[4.5]dec-3-yl}benzoic acid, TFA salt] | 793 |
| CCOc1ccc(-c2ccc(F)c(F)c2F)c(CN2CCC3(CC2)CN(c2ccc(C(=O)O)cc2)C(=O)O3)n1 [Example 4-2, 4-(8-{[6-Ethoxy-3-(2,3,4-trifluorophenyl)pyridin-2-yl]methyl}-2-oxo-1-oxa-3,8-diazaspiro[4.5]dec-3-yl)benzoic acid, TFA salt] | 13200 |
| CCOc1cc(CN2CCC3(CC2)CN(c2ccc(C(=O)O)cc2)C(=O)O3)c(-c2ccc(F)c(F)c2F)cc1C [Example 4-7, 4-{8-[(4-Ethoxy-2′,3′,4′-trifluoro-5-methylbiphenyl-2-yl)methyl]-2-oxo-1-oxa-3,8-diazaspiro[4.5]dec-3-yl}benzoic acid, TFA salt] | 409 |
| CCOc1cc(CN2CCC3(CC2)CN(c2ccc(C(=O)O)cc2C)C(=O)O3)c(-c2ccc(F)c(F)c2F)cc1C [Example 4-8, 4-{8-[(4-Ethoxy-2′,3′,4′-trifluoro-5-methylbiphenyl-2-yl)methyl]-2-oxo-1-oxa-3,8-diazaspiro[4.5]dec-3-yl}-3-methylbenzoic acid, TFA salt] | 474 |
| O=C(O)c1ccc(N2CC3(CCN(Cc4cc(C(F)(F)F)ccc4-c4ccc(F)c(F)c4F)CC3)OC2=O)cc1 [Example 4-9, 4-(2-Oxo-8-{[2′,3′,4′-trifluoro-4-(trifluoromethyl)biphenyl-2-yl]methyl}-1-oxa-3,8-diazaspiro[4.5]dec-3-yl)benzoic acid, TFA salt] | 439 |
| O=C(O)c1ccc(N2CC3(CCN(Cc4cc(C(F)(F)F)ccc4-c4ccc(F)nc4)CC3)OC2=O)cc1 [Example 4-10, 4-{8-[2-(6-Fluoropyridin-3-yl)-5-(trifluoromethyl)benzyl]-2-oxo-1-oxa-3,8-diazaspiro[4.5]dec-3-yl}benzoic acid, TFA salt] | 1490 |
| CCOc1cc(CN2CCC3(CC2)CN(c2ccc(C(=O)O)c(C)c2)C(=O)O3)c(-c2ccc(F)c(F)c2F)cc1C [Example 4-12, 4-{8-[(4-Ethoxy-2′,3′,4′-trifluoro-5-methylbiphenyl-2-yl)methyl]-2-oxo-1-oxa-3,8-diazaspiro[4.5]dec-3-yl}-2-methylbenzoic acid, TFA salt] | 188 |
| CCOc1ccc(-c2ccc(F)c(F)c2F)c(CN2CCC3(CC2)CN(c2ccc(C(=O)O)c(C)c2)C(=O)O3)c1 [Example 4-13, 4-{8-[(4-Ethoxy-2′,3′,4′-trifluorobiphenyl-2-yl)methyl]-2-oxo-1-oxa-3,8-diazaspiro[4.5]dec-3-yl}-2-methylbenzoic acid, TFA salt] | 983 |
| CCOc1cc(CN2CCC3(CC2)CN(c2ccc(C(=O)O)cc2)C(=O)O3)c(-c2ccc(F)nc2)cc1C [Example 4-14, 4-{8-[5-Ethoxy-2-(6-fluoropyridin-3-yl)-4-methylbenzyl]-2-oxo-1-oxa-3,8-diazaspiro[4.5]dec-3-yl}benzoic acid, TFA salt] | 407 |
| O=C(O)c1ccc(N2CC3(CCN(Cc4cnc(-c5ccccc5)nc4-c4ccc(F)cc4)CC3)OC2=O)cc1 [Example 4-15, 4-(8-{[4-(4-Fluorophenyl)-2-phenylpyrimidin-5-yl]methyl}-2-oxo-1-oxa-3,8-diazaspiro[4.5]dec-3-yl)benzoic acid, TFA salt] | 218000 |
| O=C(O)c1ccc(N2CC3(CCN(Cc4cc(OC(F)(F)F)ccc4-c4ccc(F)c(F)c4F)CC3)OC2=O)cc1 [Example 4-17, 4-(2-Oxo-8-{[2′,3′,4′-trifluoro-4-(trifluoromethoxy)biphenyl-2-yl]methyl}-1-oxa-3,8-diazaspiro[4.5]dec-3-yl)benzoic acid, TFA salt] | 164 |
| CCOc1cc(CN2CCC3(CC2)CN(c2ccc(C(=O)O)c(OC)c2)C(=O)O3)c(-c2ccc(F)c(F)c2F)cc1C [Example 4-18, 4-{8-[(4-Ethoxy-2′,3′,4′-trifluoro-5-methylbiphenyl-2-yl)methyl]-2-oxo-1-oxa-3,8-diazaspiro[4.5]dec-3-yl}-2-methoxybenzoic acid, TFA salt] | 228 |
| O=C(O)c1ccc(N2CC3(CCN(Cc4cc5c(cc4-c4cc(F)c(F)cc4F)CCC5)CC3)OC2=O)cc1 [Example 4-19, 4-(2-Oxo-8-{[6-(2,4,5-trifluorophenyl)-2,3-dihydro-1H-inden-5-yl]methyl}-1-oxa-3,8-diazaspiro[4.5]dec-3-yl)benzoic acid, TFA salt] | 243 |
| CCOc1cc(CN2CCC3(CC2)CN(c2ccc(C(=O)O)cc2)C(=O)O3)c(-c2ccc(C(F)(F)F)nc2)cc1C [Example 4-20, 4-(8-{5-Ethoxy-4-methyl-2-[6-(trifluoromethyl)pyridin-3-yl]benzyl}-2-oxo-1-oxa-3,8-diazaspiro[4.5]dec-3-yl)benzoic acid, TFA salt] | 632 |
| CCOc1cc(CN2CCC3(CC2)CN(c2ccc(C(=O)O)cc2F)C(=O)O3)c(-c2ccc(F)c(F)c2F)cc1C [Example 4-21, 4-{8-[(4-Ethoxy-2′,3′,4′-trifluoro-5-methylbiphenyl-2-yl)methyl]-2-oxo-1-oxa-3,8-diazaspiro[4.5]dec-3-yl}-3-fluorobenzoic acid, TFA salt] | 397 |
| CCOc1cc(CN2CCC3(CC2)CN(c2ccc(C(=O)O)cc2Cl)C(=O)O3)c(-c2ccc(F)c(F)c2F)cc1C [Example 4-22, 3-Chloro-4-{8-[(4-ethoxy-2′,3′,4′-trifluoro-5-methylbiphenyl-2-yl)methyl]-2-oxo-1-oxa-3,8-diazaspiro[4.5]dec-3-yl}benzoic acid, TFA salt] | 468 |

Continued by falling IC50, values first:

| IC50 [pM] | SMILES |
| --- | --- |
| 2300 | Cc1ccc(-c2cc(C)c(Cl)cc2CN2CCC3(CC2)CN(c2ccc(C(=O)O)cc2)C(=O)O3)cn1 [Example 4-23, 4-{8-[5-Chloro-4-methyl-2-(6-methylpyridin-3-yl)benzyl]-2-oxo-1-oxa-3,8-diazaspiro[4.5]dec-3-yl}benzoic acid, TFA salt] |
| 556 | CCOc1ccc(-c2ccc(F)c(F)c2F)c(CN2CCC3(CC2)CN(c2ccc(C(=O)O)cc2)C(=O)O3)c1 [Example 4-5, 4-{8-[(4-Ethoxy-2′,3′,4′-trifluorobiphenyl-2-yl)methyl]-2-oxo-1-oxa-3,8-diazaspiro[4.5]dec-3-yl}benzoic acid, TFA salt] |
| 546 | CC(C)Oc1ccc(-c2ccc(F)c(F)c2F)c(CN2CCC3(CC2)CN(c2ccc(C(=O)O)cc2)C(=O)O3)c1 [Example 4-6, 4-{8-[(4-(Prop-2-yloxy)-2′,3′,4′-trifluorobiphenyl-2-yl)methyl]-2-oxo-1-oxa-3,8-diazaspiro[4.5]dec-3-yl}benzoic acid, TFA salt] |
| 502 | CCOc1ccc(-c2ccc(F)c(F)c2)c(CN2CCC3(CC2)CN(c2ccc(C(=O)O)cc2)C(=O)O3)c1 [Example 4-4, 4-{8-[(4-Ethoxy-3′,4′-difluorobiphenyl-2-yl)methyl]-2-oxo-1-oxa-3,8-diazaspiro[4.5]dec-3-yl}benzoic acid, TFA salt] |
| 490 | CCOc1ccc(-c2ccc(F)cc2F)c(CN2CCC3(CC2)CN(c2ccc(C(=O)O)cc2)C(=O)O3)c1 [Example 4-3, 4-{8-[(4-Ethoxy-2′,4′-difluorobiphenyl-2-yl)methyl]-2-oxo-1-oxa-3,8-diazaspiro[4.5]dec-3-yl}benzoic acid, TFA salt] |
| 437 | CCOc1cc(CN2CCC3(CC2)CN(c2ccc(C(=O)O)cc2F)C(=O)O3)cc(OCC)c1-c1ccc(F)cc1 [Example 3-21, 4-{8-[(2,6-Diethoxy-4′-fluorobiphenyl-4-yl)methyl]-2-oxo-1-oxa-3,8-diazaspiro[4.5]dec-3-yl}-3-fluorobenzoic acid, TFA salt] |
| 272 | CC(C)Oc1ccc(-c2cc(F)c(F)cc2F)c(CN2CCC3(CC2)CN(c2ccc(C(=O)O)cc2)C(=O)O3)c1 [Example 4-16, 4-(2-Oxo-8-{[2′,4′,5′-trifluoro-4-(propan-2-yloxy)biphenyl-2-yl]methyl}-1-oxa-3,8-diazaspiro[4.5]dec-3-yl)benzoic acid, TFA salt] |
| 152 | CCOc1cc(CN2CCC3(CC2)CN(c2ccc(C(=O)O)cc2)C(=O)O3)c(-c2cc(F)c(F)cc2F)cc1C [Example 4-11, 4-{8-[(4-Ethoxy-2′,4′,5′-trifluoro-5-methylbiphenyl-2-yl)methyl]-2-oxo-1-oxa-3,8-diazaspiro[4.5]dec-3-yl}benzoic acid, TFA salt] |
| 129 | CCOc1cc(CN2CCC3(CC2)CN(c2ccc(C(=O)O)c(OC)c2)C(=O)O3)cc(OCC)c1-c1ccc(F)cc1 [Example 3-20, 4-{8-[(2,6-Diethoxy-4′-fluorobiphenyl-4-yl)methyl]-2-oxo-1-oxa-3,8-diazaspiro[4.5]dec-3-yl}-2-methoxybenzoic acid, TFA salt] |
